These results are taken from ChEMBL document CHEMBL3400138, “Synthesis of 3-azabicyclo[3.2.2]nonanes and their antiprotozoal activities” (Bioorg Med Chem Lett, 2015).

The subject of one assay is Plasmodium falciparum. Put plainly: Antiplasmodial activity against chloroquine and pyrimethamine resistant Plasmodium falciparum K1 infected in human red blood cells assessed as reduction in parasite viability after 48 hrs by [3H]-hypoxanthine incorporation assay. The format is functional, organism-based.
In assay [1] the test system is Trypanosoma brucei rhodesiense. Put plainly: Antitrypanosomal activity against Trypanosoma brucei rhodesiense STIB900 bloodstream forms after 72 hrs by alamar blue assay. In kind it is functional, organism-based. Particulars: STIB900, 72 h. Background: The colour change of resazurin is a common sign of viable cells or microbes.
The subject of a further assay is L6. Put plainly: Cytotoxicity against rat L6 cells after 72 hrs by alamar blue assay. In kind it is cell-based. As to conditions: L6, 72 h.
Assay [2] is described as follows: Selectivity index, ratio of CC50 for rat L6 cells to IC50 for Trypanosoma brucei rhodesiense STIB900. The format is functional.
Assay [3] is described as follows: Selectivity index, ratio of CC50 for rat L6 cells to IC50 for chloroquine and pyrimethamine resistant Plasmodium falciparum K1. The format is functional.
In assay [4] the test system is Plasmodium berghei. Put plainly: Antiplasmodial activity against GFP-transfected Plasmodium berghei ANKA infected in NMRI mouse assessed as mean survival day at 50 mg/kg, ip administered 4, 24, 48 and 72 hrs post infection (reference value: 4 to 6 days). The format is functional. Particulars: route intraperitoneal.
Assay [5] has as its system Plasmodium berghei. Put plainly: Antiplasmodial activity against GFP-transfected Plasmodium berghei ANKA infected in NMRI mouse assessed as reduction in parasitemia at 50 mg/kg, ip administered 4, 24, 48 and 72 hrs post infection by FACS analysis. The format is functional. Particulars: route intraperitoneal.
The test system of assay [6] is Plasmodium berghei. Put plainly: Growth inhibition of Plasmodium berghei infected in mouse. In kind it is functional.
For assay [7], the system named is Plasmodium berghei. Put plainly: Antiplasmodial activity against GFP-transfected Plasmodium berghei ANKA infected in NMRI mouse assessed as mean survival day at 10 mg/kg, ip administered 4, 24, 48 and 72 hrs post infection (reference value: 4 days). The format is functional. Particulars: route intraperitoneal.
In assay [8] the test system is Plasmodium berghei. Put plainly: Antiplasmodial activity against GFP-transfected Plasmodium berghei ANKA infected in NMRI mouse assessed as reduction in parasitemia at 10 mg/kg, ip administered 4, 24, 48 and 72 hrs post infection by FACS analysis. The format is functional. Particulars: route intraperitoneal. On the technique in general: A flow cytometer gives signals particle by particle.

Assay [9] has as its system Mycolicibacterium smegmatis. Put plainly: Antimycobacterial activity against Mycobacterium smegmatis ATCC 14468 assessed as inhibition of bacterial growth after 72 hrs by MTT dye based microbroth dilution assay. In kind it is functional. As to conditions: ATCC 14468, 72 h.
The subject of the next assay is Proteus mirabilis. Put plainly: Antibacterial activity against Proteus mirabilis ATCC 14153 at 100 ug after 24 hrs. Particulars: ATCC 14153, 24 h, read-out: DIZ. In kind it is functional.
The subject of a further assay is Escherichia coli. Put plainly: Antibacterial activity against Escherichia coli ATCC 25922 at 100 ug after 24 hrs. In kind it is functional. Particulars: ATCC 25922, 24 h, read-out: DIZ.
For a further assay, the system named is Staphylococcus aureus. Kind of assay: Antibacterial activity against Staphylococcus aureus ATCC 25923 at 100 ug after 24 hrs. Particulars: ATCC 25923, 24 h, read-out: DIZ. In kind it is functional.
A further assay concerns Enterococcus faecalis. Put plainly: Antibacterial activity against Enterococcus faecalis ATCC 14506 at 100 ug after 24 hrs. As to conditions: ATCC 14506, 24 h, read-out: DIZ. In kind it is functional.
Another assay concerns Candida parapsilosis. Put plainly: Antifungal activity against Candida parapsilosis ATCC 90018 at 100 ug after 48 hrs. The format is functional, organism-based.
The next assay deals with Candida tropicalis. Put plainly: Antifungal activity against Candida tropicalis ATCC 13803 at 100 ug after 48 hrs. The format is functional, organism-based.

pIC50: −log10 of the molar value. Values after ≈ are worked out from the molar mass of the structure shown. A value given as a limit tells only on which side of the number the result lay.

For the molecule `Cl.O=C1NCC2(N3CCOCC3)CC(c3ccccc3)C1C(c1ccccc1)C2` (centres undefined), the negative logarithm of the IC50 (pIC50) (in general, −log10 of the IC50, conventionally taken in molar units) with Plasmodium falciparum is < 4.88; in assay [1] it was 3.89; in the assay with L6 it was < 3.62. The “Ratio IC50” value in [2] stood at 1.9; in assay [3], 18.
On to `CN(C)C12CNCC(C(c3ccc(Cl)cc3)C1)C(c1ccc(Cl)cc1)C2.Cl` (centres undefined), for which the pIC50 in the assay with Plasmodium falciparum was 6.11; in assay [1] it was 6.47; in the assay on L6, 5.05. In addition, the “Ratio IC50” value in [2] was 26.4; in assay [3] it was 11.63.
On to `CN(C)C12CC(=O)NC(C(c3ccccc3)C1)C(c1ccccc1)C2.Cl` (racemic), for which the “Ratio IC50” value in [2] is 7.1.
As for `Cl.O=C1CC2(N3CCOCC3)CC(c3ccccc3)C(N1)C(c1ccccc1)C2` (racemic), the negative-log IC50 (pIC50) was < 4.88 with Plasmodium falciparum, 3.86 in assay [1] and < 3.62 in the assay on L6. In addition, the “Ratio IC50” value in assay [2] came to 1.7; in assay [3], 18.
Regarding `Cl.O=C1CC2(N3CCCC3)CC(c3ccccc3)C(N1)C(c1ccccc1)C2` (racemic), the results for the “Ratio IC50” value in assay [2] and in assay [3] were 6.6 and 28.5, respectively.
As to `Cl.O=C1CC2(N3CCCCC3)CC(c3ccccc3)C(N1)C(c1ccccc1)C2` (racemic), the “Ratio IC50” value in assay [2] is listed as 6.4.
For `CN(C)C12CCNC(C(c3ccccc3)C1)C(c1ccccc1)C2.Cl` (racemic), the MSD with Plasmodium berghei [4] worked out at 6.3 days. The inhibition in vivo (usually the change of the read-out against control, counted positive when it falls) at 50 mg/kg in the assay with Plasmodium berghei [5] was found to be 35.1%. For the same molecule, the “growth inhibition (GI)” value with Plasmodium berghei [6] is listed as 35%. Besides, the “Ratio IC50” value in assay [2] stood at 181.
As for `Cl.c1ccc(C2CC3(N4CCOCC4)CCNC2C(c2ccccc2)C3)cc1` (racemic), the results for the pIC50 (with Plasmodium falciparum; in assay [1]; in the assay with L6) were 5.16, 5.03 and < 3.68, respectively. Besides, the “Ratio IC50” value in assay [2] stood at 21.9; in assay [3], 30.22.
On to `Cl.c1ccc(C2CC3(N4CCCC4)CCNC2C(c2ccccc2)C3)cc1` (racemic), for which the “Ratio IC50” value in assay [2] worked out at 103.
With `Cl.c1ccc(C2CC3(N4CCCCC4)CCNC2C(c2ccccc2)C3)cc1` (racemic), the “Ratio IC50” value in assay [2] amounted to 13.7.
As for `CN(C)C12CCNC(C(c3ccc(Cl)cc3)C1)C(c1ccc(Cl)cc1)C2.Cl` (racemic), the “Ratio IC50” value in assay [2] is 143.
Consider `Cl.Clc1ccc(C2CC3(N4CCCC4)CCNC2C(c2ccc(Cl)cc2)C3)cc1` (racemic), for which the “Ratio IC50” value in assay [2] was found to be 152.
As for `Cl.Clc1ccc(C2CC3(N4CCCCC4)CCNC2C(c2ccc(Cl)cc2)C3)cc1` (racemic), in [2], the “Ratio IC50” value came out at 124.
With `CN(C)C12CNCC(C(c3ccccc3)C1)C(c1ccccc1)C2.Cl` (racemic), the results for the negative-log IC50 (pIC50) (in the assay on Plasmodium falciparum; in [1]; in the assay on L6) were 6.57, 5.80 and 3.91, respectively. Moreover, in the assay on Plasmodium berghei [4], the MSD is 4 days. The inhibition in vivo at 50 mg/kg with Plasmodium berghei [5] came out at 0%. For the same molecule, the “Ratio IC50” value worked out at 77.3 in assay [2] and 452.2 in assay [3].
For the molecule `Cl.c1ccc(C2CC3(N4CCOCC4)CNCC2C(c2ccccc2)C3)cc1` (racemic), the pIC50 in the assay on Plasmodium falciparum is 6.19; in assay [1], 5.42; in the assay with L6, 4.36. Besides, the figures for the “Ratio IC50” value in [2] and in assay [3] were 11.3 and 66.63, respectively.
`Cl.c1ccc(C2CC3(N4CCCCC4)CNCC2C(c2ccccc2)C3)cc1` (racemic): the pIC50 in the assay on Plasmodium falciparum was 6.12; in assay [1] it was 5.69; in the assay on L6, 3.91. Also, the “Ratio IC50” value in assay [2] is 60.5; in assay [3], 163.1.
In the case of `Cl.Clc1ccc(C2CC3(N4CCCC4)CNCC2C(c2ccc(Cl)cc2)C3)cc1` (racemic), the negative-log IC50 (pIC50) is 6.59 in [1] and 5.04 with L6. In addition, the “Ratio IC50” value in [2] is listed as 35.
Regarding `Cl.Clc1ccc(C2CC3(N4CCCCC4)CNCC2C(c2ccc(Cl)cc2)C3)cc1` (racemic), the negative-log IC50 (pIC50) is 6.43 in the assay with Plasmodium falciparum, 6.49 in [1] and 5.09 in the assay on L6. Also, the “Ratio IC50” value in assay [2] amounted to 25.3; in [3] it was 21.86.
Take `C[C@@H]1CC[C@H]2[C@@H](C)C(=O)O[C@@H]3O[C@@]4(C)CC[C@@H]1[C@]32OO4` [ARTEMISININ]: the negative-log IC50 (pIC50) in the assay with Plasmodium falciparum is 8.19.
With `CCN(CC)CCCC(C)Nc1ccnc2cc(Cl)ccc12` (centres undefined) [CHLOROQUINE], in the assay on Plasmodium berghei [7], the MSD worked out at 20 days. In addition, the inhibition in vivo at 10 mg/kg in the assay with Plasmodium berghei [8] is 99.6%.
In the case of `NNC(=O)c1ccncc1` [ISONIAZID], the MIC (as a rule, the smallest concentration in the dilution series that meets the test's criterion for growth inhibition) in assay [9] turned out to be 4 µg/mL (≈ 29.2 µM).
On to `NC[C@H]1O[C@H](O[C@H]2[C@H](O)[C@@H](O[C@H]3O[C@H](CO)[C@@H](O)[C@H](N)[C@H]3O)[C@H](N)C[C@@H]2N)[C@H](O)[C@@H](O)[C@@H]1O` [KANAMYCIN], for which the zone of inhibition at 100 µg/disc with Proteus mirabilis and with Escherichia coli was 20 mm throughout.
As for `CC1(C)S[C@@H]2[C@H](NC(=O)Cc3ccccc3)C(=O)N2[C@H]1C(=O)O` [PENICILLIN G], the zone of inhibition at 100 µg/disc in the assay with Staphylococcus aureus amounted to 30 mm; in the assay with Enterococcus faecalis it was 20 mm; with Escherichia coli, 15 mm.
As for NYSTATIN, the values for the inhibition zone (IZ) in the assay with Candida parapsilosis and in the assay with Candida tropicalis were 25 mm and 20 mm, respectively.
